According to the NIST ThermoML archive (doi:10.1021/je300799f):

Test: xn = mol fraction of the nth substance listed
Details: 101 kPa, Liquid, Vibrating tube method

CCCC(=O)OCC [ethyl butanoate] + CCCCCCC
Details | mass density [kg/m3]
288.15 K, x1 = 0.0502 | 696.39
288.15 K, x1 = 0.0918 | 703.35
288.15 K, x1 = 0.1473 | 712.8
288.15 K, x1 = 0.2022 | 722.42
288.15 K, x1 = 0.2465 | 730.35
288.15 K, x1 = 0.288 | 737.84
288.15 K, x1 = 0.3987 | 758.41
288.15 K, x1 = 0.4488 | 767.94
288.15 K, x1 = 0.5008 | 778.03
288.15 K, x1 = 0.5456 | 786.84
288.15 K, x1 = 0.6023 | 798.22
288.15 K, x1 = 0.6584 | 809.63
288.15 K, x1 = 0.6999 | 818.26
288.15 K, x1 = 0.7486 | 828.54
288.15 K, x1 = 0.8042 | 840.42
288.15 K, x1 = 0.8481 | 850.01
288.15 K, x1 = 0.901 | 861.58
288.15 K, x1 = 0.9347 | 869.11
288.15 K, x1 = 0.9527 | 873.2
288.15 K, x1 = 1 | 884.01
298.15 K, x1 = 0.0522 | 688.18
298.15 K, x1 = 0.0904 | 694.54
298.15 K, x1 = 0.1404 | 703.05
298.15 K, x1 = 0.1901 | 711.58
298.15 K, x1 = 0.2539 | 722.68
298.15 K, x1 = 0.2962 | 730.22
298.15 K, x1 = 0.3543 | 740.87
298.15 K, x1 = 0.4 | 749.31
298.15 K, x1 = 0.443 | 757.44
298.15 K, x1 = 0.5517 | 778.51
298.15 K, x1 = 0.6018 | 788.45
298.15 K, x1 = 0.648 | 797.84
298.15 K, x1 = 0.6976 | 808.02
298.15 K, x1 = 0.7463 | 818.17
298.15 K, x1 = 0.7884 | 827.06
298.15 K, x1 = 0.8473 | 839.64
298.15 K, x1 = 0.9054 | 852.26
298.15 K, x1 = 0.9524 | 862.74
298.15 K, x1 = 1 | 873.5
308.15 K, x1 = 0.0461 | 678.42
308.15 K, x1 = 0.0952 | 686.44
308.15 K, x1 = 0.1445 | 694.69
308.15 K, x1 = 0.2034 | 704.7
308.15 K, x1 = 0.2497 | 712.78
308.15 K, x1 = 0.3081 | 723.17
308.15 K, x1 = 0.3441 | 729.57
308.15 K, x1 = 0.406 | 741.01
308.15 K, x1 = 0.4563 | 750.35
308.15 K, x1 = 0.5053 | 759.76
308.15 K, x1 = 0.5505 | 768.46
308.15 K, x1 = 0.6038 | 778.99
308.15 K, x1 = 0.6498 | 788.17
308.15 K, x1 = 0.7026 | 798.87
308.15 K, x1 = 0.7544 | 809.6
308.15 K, x1 = 0.788 | 816.69
308.15 K, x1 = 0.8424 | 828.13
308.15 K, x1 = 0.9009 | 840.82
308.15 K, x1 = 0.9512 | 851.86
308.15 K, x1 = 1 | 862.85
318.15 K, x1 = 0.0532 | 670.78
318.15 K, x1 = 0.095 | 677.56
318.15 K, x1 = 0.1397 | 684.91
318.15 K, x1 = 0.2087 | 696.59
318.15 K, x1 = 0.2565 | 704.87
318.15 K, x1 = 0.3048 | 713.3
318.15 K, x1 = 0.3608 | 723.3
318.15 K, x1 = 0.4046 | 731.26
318.15 K, x1 = 0.4532 | 740.3
318.15 K, x1 = 0.5065 | 750.34
318.15 K, x1 = 0.5517 | 759.04
318.15 K, x1 = 0.6007 | 768.46
318.15 K, x1 = 0.6492 | 778.12
318.15 K, x1 = 0.6934 | 787.02
318.15 K, x1 = 0.739 | 796.28
318.15 K, x1 = 0.7947 | 807.72
318.15 K, x1 = 0.8554 | 820.65
318.15 K, x1 = 0.8861 | 827.23
318.15 K, x1 = 0.9515 | 841.48
318.15 K, x1 = 1 | 852.26
328.15 K, x1 = 0.0535 | 662.06
328.15 K, x1 = 0.0975 | 669.12
328.15 K, x1 = 0.1485 | 677.41
328.15 K, x1 = 0.1785 | 682.4
328.15 K, x1 = 0.2367 | 692.21
328.15 K, x1 = 0.3034 | 703.69
328.15 K, x1 = 0.359 | 713.56
328.15 K, x1 = 0.4538 | 730.76
328.15 K, x1 = 0.5087 | 741
328.15 K, x1 = 0.5511 | 749.04
328.15 K, x1 = 0.6093 | 760.27
328.15 K, x1 = 0.6471 | 767.65
328.15 K, x1 = 0.6967 | 777.52
328.15 K, x1 = 0.739 | 786.07
328.15 K, x1 = 0.7999 | 798.54
328.15 K, x1 = 0.8397 | 806.83
328.15 K, x1 = 0.9086 | 821.54
328.15 K, x1 = 0.9533 | 831.27
328.15 K, x1 = 1 | 841.55

CCCC(=O)OC [methyl butanoate] + CCCCCCCCC
Details | mass density [kg/m3]
288.15 K, x1 = 0.0544 | 727.14
288.15 K, x1 = 0.0804 | 729.99
288.15 K, x1 = 0.1647 | 739.66
288.15 K, x1 = 0.2172 | 746.06
288.15 K, x1 = 0.2378 | 748.63
288.15 K, x1 = 0.2963 | 756.43
288.15 K, x1 = 0.3419 | 762.85
288.15 K, x1 = 0.3986 | 771.19
288.15 K, x1 = 0.4425 | 778.04
288.15 K, x1 = 0.5007 | 787.63
288.15 K, x1 = 0.5488 | 796.09
288.15 K, x1 = 0.604 | 806.21
288.15 K, x1 = 0.6553 | 816.39
288.15 K, x1 = 0.6959 | 824.67
288.15 K, x1 = 0.7507 | 836.81
288.15 K, x1 = 0.8114 | 850.96
288.15 K, x1 = 0.8553 | 862.13
288.15 K, x1 = 0.8988 | 873.46
288.15 K, x1 = 0.9507 | 888.13
288.15 K, x1 = 1 | 903.31
298.15 K, x1 = 0.0495 | 718.76
298.15 K, x1 = 0.0998 | 724.04
298.15 K, x1 = 0.1729 | 732.49
298.15 K, x1 = 0.1935 | 734.88
298.15 K, x1 = 0.2473 | 741.54
298.15 K, x1 = 0.3035 | 748.92
298.15 K, x1 = 0.3558 | 756.23
298.15 K, x1 = 0.4462 | 769.69
298.15 K, x1 = 0.5497 | 786.99
298.15 K, x1 = 0.6465 | 805.02
298.15 K, x1 = 0.7509 | 826.86
298.15 K, x1 = 0.7772 | 832.78
298.15 K, x1 = 0.8038 | 839.14
298.15 K, x1 = 0.9052 | 864.6
298.15 K, x1 = 0.953 | 878.19
298.15 K, x1 = 1 | 892.31
308.15 K, x1 = 0.0554 | 711.45
308.15 K, x1 = 0.1002 | 716.1
308.15 K, x1 = 0.1653 | 723.29
308.15 K, x1 = 0.2108 | 728.63
308.15 K, x1 = 0.2545 | 734.04
308.15 K, x1 = 0.3082 | 740.93
308.15 K, x1 = 0.3598 | 748.08
308.15 K, x1 = 0.409 | 755.11
308.15 K, x1 = 0.4594 | 762.76
308.15 K, x1 = 0.4993 | 769.14
308.15 K, x1 = 0.5504 | 777.76
308.15 K, x1 = 0.6001 | 786.6
308.15 K, x1 = 0.6482 | 795.68
308.15 K, x1 = 0.6945 | 804.91
308.15 K, x1 = 0.7463 | 815.78
308.15 K, x1 = 0.7964 | 827.07
308.15 K, x1 = 0.8451 | 838.68
308.15 K, x1 = 0.8948 | 851.33
308.15 K, x1 = 0.9497 | 866.34
308.15 K, x1 = 1 | 881.19
318.15 K, x1 = 0.0234 | 700.32
318.15 K, x1 = 0.0731 | 705.17
318.15 K, x1 = 0.1033 | 708.28
318.15 K, x1 = 0.1552 | 713.83
318.15 K, x1 = 0.1993 | 718.91
318.15 K, x1 = 0.2571 | 725.77
318.15 K, x1 = 0.3123 | 732.79
318.15 K, x1 = 0.3568 | 738.79
318.15 K, x1 = 0.4135 | 746.74
318.15 K, x1 = 0.4555 | 753.07
318.15 K, x1 = 0.5093 | 761.51
318.15 K, x1 = 0.5565 | 769.3
318.15 K, x1 = 0.6043 | 777.7
318.15 K, x1 = 0.6544 | 787.04
318.15 K, x1 = 0.7067 | 797.4
318.15 K, x1 = 0.7541 | 807.31
318.15 K, x1 = 0.8037 | 818.4
318.15 K, x1 = 0.8594 | 831.69
318.15 K, x1 = 0.9068 | 843.76
318.15 K, x1 = 0.9511 | 855.91
318.15 K, x1 = 1 | 870.06
328.15 K, x1 = 0.0272 | 692.57
328.15 K, x1 = 0.0562 | 695.34
328.15 K, x1 = 0.078 | 697.49
328.15 K, x1 = 0.1041 | 700.12
328.15 K, x1 = 0.1502 | 704.97
328.15 K, x1 = 0.2023 | 710.73
328.15 K, x1 = 0.2654 | 718.16
328.15 K, x1 = 0.3073 | 723.36
328.15 K, x1 = 0.3624 | 730.61
328.15 K, x1 = 0.412 | 737.45
328.15 K, x1 = 0.4567 | 744
328.15 K, x1 = 0.5083 | 751.95
328.15 K, x1 = 0.5549 | 759.51
328.15 K, x1 = 0.6157 | 770.1
328.15 K, x1 = 0.6554 | 777.42
328.15 K, x1 = 0.7027 | 786.49
328.15 K, x1 = 0.749 | 795.99
328.15 K, x1 = 0.8511 | 819.04
328.15 K, x1 = 0.9051 | 832.64
328.15 K, x1 = 0.9506 | 844.76
328.15 K, x1 = 1 | 858.8
